Test results taken from ChEMBL document CHEMBL1148538, “Scaffold oriented synthesis. Part 1: Design, preparation, and biological evaluation of thienopyrazoles as kinase inhibitors” (Bioorg Med Chem Lett, 2006).

Key:
[1] = target: RAC-alpha serine/threonine-protein kinase (Homo sapiens, UniProt P31749); assay: Inhibitory activity against Akt1
[2] = target: Vascular endothelial growth factor receptor 2 (Homo sapiens, UniProt P35968); assay: Inhibitory activity against KDR
[3] = target: Serine/threonine-protein kinase PLK1 (Homo sapiens, UniProt P53350); assay: Inhibitory activity against Plk1
[4] = target: Cyclin-dependent kinase 2/cyclin A (Homo sapiens, UniProt P24941); assay: Inhibitory activity against CDK2/Cyclin A; assay type: protein-complex assay
[5] = target: MAP kinase-activated protein kinase 2 (Homo sapiens, UniProt P49137); assay: Inhibitory activity against MK2
[6] = target: Mitogen-activated protein kinase 14 (Homo sapiens, UniProt Q16539); assay: Inhibitory activity against p38alpha
Casein kinase II = Casein kinase II (Homo sapiens, UniProt P19784+P67870+P68400); assay: Inhibitory activity against CK2; assay type: protein-complex assay
[7] = target: Mitogen-activated protein kinase kinase kinase 8 (Homo sapiens, UniProt P41279); assay: Inhibitory activity against COT
[8] = target: Serine/threonine-protein kinase PAK 4 (Homo sapiens, UniProt O96013); assay: Inhibitory activity against Pak4
Chain of Serine/threonine-protein kinase PAK 4 (O96013 whole entry): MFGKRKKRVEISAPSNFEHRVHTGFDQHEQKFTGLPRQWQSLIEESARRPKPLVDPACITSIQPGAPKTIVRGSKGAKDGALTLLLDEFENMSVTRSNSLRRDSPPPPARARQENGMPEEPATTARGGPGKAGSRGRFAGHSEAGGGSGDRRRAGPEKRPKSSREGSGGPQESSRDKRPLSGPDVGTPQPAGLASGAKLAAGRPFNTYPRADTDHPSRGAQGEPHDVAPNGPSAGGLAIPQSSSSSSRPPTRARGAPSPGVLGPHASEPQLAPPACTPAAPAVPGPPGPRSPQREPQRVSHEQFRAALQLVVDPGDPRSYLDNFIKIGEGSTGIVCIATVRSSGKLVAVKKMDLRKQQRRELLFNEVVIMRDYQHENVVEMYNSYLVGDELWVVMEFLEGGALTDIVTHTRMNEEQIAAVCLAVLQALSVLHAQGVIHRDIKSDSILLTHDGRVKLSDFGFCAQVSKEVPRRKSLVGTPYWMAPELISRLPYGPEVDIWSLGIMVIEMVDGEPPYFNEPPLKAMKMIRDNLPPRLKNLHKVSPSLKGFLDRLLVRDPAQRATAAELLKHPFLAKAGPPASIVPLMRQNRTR

Chain of Mitogen-activated protein kinase kinase kinase 8 (P41279 whole entry): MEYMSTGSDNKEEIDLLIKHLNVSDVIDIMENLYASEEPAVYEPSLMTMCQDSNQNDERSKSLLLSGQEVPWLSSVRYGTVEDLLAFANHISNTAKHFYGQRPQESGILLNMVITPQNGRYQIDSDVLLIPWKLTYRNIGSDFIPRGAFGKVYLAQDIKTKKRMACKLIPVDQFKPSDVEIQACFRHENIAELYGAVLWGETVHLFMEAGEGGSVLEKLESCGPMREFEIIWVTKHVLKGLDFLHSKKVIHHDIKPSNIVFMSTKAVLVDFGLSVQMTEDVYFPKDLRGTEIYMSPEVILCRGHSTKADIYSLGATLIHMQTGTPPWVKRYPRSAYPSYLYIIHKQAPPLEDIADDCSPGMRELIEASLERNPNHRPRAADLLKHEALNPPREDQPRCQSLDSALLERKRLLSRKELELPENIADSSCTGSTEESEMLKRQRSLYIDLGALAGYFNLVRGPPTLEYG
Chain of Mitogen-activated protein kinase 14 (Q16539 whole entry): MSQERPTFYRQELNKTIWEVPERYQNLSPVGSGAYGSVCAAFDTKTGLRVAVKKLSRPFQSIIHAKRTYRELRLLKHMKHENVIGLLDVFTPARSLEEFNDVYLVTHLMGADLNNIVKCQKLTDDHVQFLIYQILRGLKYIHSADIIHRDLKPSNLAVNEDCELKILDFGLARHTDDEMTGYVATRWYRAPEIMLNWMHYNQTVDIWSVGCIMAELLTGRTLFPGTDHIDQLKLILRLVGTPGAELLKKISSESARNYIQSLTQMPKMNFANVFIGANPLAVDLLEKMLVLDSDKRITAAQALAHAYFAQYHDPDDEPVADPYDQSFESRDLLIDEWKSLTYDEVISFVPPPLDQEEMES
Chain of Vascular endothelial growth factor receptor 2 (P35968 whole entry): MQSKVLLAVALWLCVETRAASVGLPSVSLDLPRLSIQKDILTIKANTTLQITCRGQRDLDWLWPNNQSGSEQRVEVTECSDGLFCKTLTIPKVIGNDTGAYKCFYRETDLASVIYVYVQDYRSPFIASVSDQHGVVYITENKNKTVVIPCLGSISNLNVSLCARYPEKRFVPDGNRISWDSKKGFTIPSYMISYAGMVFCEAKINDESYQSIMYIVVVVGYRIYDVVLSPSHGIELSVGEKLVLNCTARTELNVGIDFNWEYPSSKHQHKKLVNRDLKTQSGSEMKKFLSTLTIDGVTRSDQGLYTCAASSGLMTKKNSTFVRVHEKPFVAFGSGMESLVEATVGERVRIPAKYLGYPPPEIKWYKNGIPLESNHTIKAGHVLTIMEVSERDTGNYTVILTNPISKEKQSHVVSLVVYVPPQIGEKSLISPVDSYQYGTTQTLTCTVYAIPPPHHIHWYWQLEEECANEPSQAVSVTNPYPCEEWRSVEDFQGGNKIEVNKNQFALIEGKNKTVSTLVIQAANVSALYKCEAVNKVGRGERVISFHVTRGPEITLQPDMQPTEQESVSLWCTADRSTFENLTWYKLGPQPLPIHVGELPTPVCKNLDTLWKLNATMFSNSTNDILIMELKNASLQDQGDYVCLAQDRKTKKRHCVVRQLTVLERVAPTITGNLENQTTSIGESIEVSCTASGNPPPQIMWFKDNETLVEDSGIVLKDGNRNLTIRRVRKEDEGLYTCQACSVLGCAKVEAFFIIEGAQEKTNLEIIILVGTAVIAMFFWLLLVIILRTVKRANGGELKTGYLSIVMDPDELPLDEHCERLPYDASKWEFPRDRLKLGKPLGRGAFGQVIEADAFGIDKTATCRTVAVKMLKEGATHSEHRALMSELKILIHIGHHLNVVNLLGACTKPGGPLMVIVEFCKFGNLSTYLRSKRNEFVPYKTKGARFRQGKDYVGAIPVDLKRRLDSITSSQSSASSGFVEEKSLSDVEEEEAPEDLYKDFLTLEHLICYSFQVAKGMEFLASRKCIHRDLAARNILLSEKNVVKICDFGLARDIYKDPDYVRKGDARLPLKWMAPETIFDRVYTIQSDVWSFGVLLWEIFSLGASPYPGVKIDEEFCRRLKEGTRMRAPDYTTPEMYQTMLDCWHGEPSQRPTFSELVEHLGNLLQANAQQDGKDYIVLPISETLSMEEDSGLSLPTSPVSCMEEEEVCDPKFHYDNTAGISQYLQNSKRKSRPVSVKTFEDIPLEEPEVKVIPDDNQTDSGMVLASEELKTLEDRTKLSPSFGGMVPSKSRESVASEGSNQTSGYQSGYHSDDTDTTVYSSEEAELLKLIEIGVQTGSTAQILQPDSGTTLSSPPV
Chain of RAC-alpha serine/threonine-protein kinase (P31749 whole entry): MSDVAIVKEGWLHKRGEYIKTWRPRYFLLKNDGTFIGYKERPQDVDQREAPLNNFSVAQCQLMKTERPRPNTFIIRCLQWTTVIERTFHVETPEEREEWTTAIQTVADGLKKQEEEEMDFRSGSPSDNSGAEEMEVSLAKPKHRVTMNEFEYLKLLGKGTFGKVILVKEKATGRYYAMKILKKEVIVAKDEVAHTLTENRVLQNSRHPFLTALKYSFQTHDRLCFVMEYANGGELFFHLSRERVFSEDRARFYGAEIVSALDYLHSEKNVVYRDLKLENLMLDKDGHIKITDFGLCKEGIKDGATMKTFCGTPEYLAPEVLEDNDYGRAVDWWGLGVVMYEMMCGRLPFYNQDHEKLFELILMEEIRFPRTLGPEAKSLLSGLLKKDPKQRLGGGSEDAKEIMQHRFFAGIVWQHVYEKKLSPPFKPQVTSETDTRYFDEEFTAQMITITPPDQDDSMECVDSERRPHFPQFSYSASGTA
Chain of Casein kinase II (P67870 whole entry): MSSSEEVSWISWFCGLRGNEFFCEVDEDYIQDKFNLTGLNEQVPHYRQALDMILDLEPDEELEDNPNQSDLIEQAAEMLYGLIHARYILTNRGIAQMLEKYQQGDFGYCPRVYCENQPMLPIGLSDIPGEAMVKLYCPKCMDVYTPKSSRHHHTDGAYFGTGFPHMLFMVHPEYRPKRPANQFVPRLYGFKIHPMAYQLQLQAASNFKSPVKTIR
Chain of Casein kinase II (P68400 whole entry): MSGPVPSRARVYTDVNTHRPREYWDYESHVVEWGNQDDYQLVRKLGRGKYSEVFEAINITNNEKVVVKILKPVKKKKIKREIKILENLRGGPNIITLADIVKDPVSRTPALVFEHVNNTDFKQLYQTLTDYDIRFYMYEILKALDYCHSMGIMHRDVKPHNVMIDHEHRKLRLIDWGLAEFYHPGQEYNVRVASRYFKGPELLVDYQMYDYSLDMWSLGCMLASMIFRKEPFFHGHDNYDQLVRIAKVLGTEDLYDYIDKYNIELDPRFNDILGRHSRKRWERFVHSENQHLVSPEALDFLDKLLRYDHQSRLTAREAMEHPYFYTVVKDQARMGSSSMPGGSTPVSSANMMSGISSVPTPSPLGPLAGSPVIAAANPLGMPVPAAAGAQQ
Chain of Casein kinase II (P19784 whole entry): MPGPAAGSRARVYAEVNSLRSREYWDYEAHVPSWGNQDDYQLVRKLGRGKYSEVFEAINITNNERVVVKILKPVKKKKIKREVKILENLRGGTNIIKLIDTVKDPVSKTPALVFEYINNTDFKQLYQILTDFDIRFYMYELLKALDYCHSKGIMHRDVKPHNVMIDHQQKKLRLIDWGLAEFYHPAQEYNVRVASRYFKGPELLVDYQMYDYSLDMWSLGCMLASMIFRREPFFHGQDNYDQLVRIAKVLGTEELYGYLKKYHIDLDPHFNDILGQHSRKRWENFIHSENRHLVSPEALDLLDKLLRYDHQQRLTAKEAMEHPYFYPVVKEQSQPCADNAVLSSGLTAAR
Chain of Serine/threonine-protein kinase PLK1 (P53350 whole entry): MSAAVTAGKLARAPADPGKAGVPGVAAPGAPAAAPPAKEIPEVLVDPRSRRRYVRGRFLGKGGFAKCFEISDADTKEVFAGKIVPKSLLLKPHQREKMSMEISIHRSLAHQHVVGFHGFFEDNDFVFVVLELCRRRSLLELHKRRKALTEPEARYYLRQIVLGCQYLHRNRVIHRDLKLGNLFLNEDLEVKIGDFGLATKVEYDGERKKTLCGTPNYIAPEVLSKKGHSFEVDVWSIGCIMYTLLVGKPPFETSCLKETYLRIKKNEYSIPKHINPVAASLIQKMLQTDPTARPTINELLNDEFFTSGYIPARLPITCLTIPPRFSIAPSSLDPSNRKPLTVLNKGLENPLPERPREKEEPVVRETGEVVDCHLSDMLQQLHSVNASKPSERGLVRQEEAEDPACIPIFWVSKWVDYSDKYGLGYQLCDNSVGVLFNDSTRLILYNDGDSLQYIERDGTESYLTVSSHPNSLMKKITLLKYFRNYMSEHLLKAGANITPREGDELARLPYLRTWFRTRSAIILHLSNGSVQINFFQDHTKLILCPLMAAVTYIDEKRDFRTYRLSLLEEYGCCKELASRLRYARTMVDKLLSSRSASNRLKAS

With CCCCN(C)C(=O)c1cc2c(-c3ccccc3)n[nH]c2s1 the IC50 [1] was over 20 µM, the IC50 [2] was 0.35 µM and the IC50 [3] was over 20 µM. The IC50 [4] was over 20 µM, the IC50 [5] was over 20 µM and the IC50 [6] was over 20 µM. The IC50 (Casein kinase II) was 5 µM, the IC50 [7] was over 20 µM and the IC50 [8] was over 20 µM.
In the case of Cc1n[nH]c2sc(C(N)=O)c(NC(=O)c3cccs3)c12, the IC50 [1] is reported as 17 µM, the IC50 [2] is reported as 6 µM and the IC50 [3] is reported as over 100 µM. The IC50 (Casein kinase II) was over 100 µM and the IC50 [8] was over 100 µM.
Cc1n[nH]c2sc(C(N)=O)c(NC(=O)c3cccc(Cl)c3)c12 showed an IC50 [1] of over 100 µM, an IC50 [2] of over 100 µM and an IC50 [3] of over 100 µM. The IC50 (Casein kinase II) was over 100 µM and the IC50 [8] was over 100 µM.
With Cc1n[nH]c2sc(C(=O)NC3CCCCC3)cc12 the IC50 [1] was over 20 µM, the IC50 [2] was over 20 µM and the IC50 [3] was over 20 µM. It also gave an IC50 [5] of over 20 µM, an IC50 (Casein kinase II) of over 20 µM and an IC50 [7] of over 20 µM. It also gave an IC50 [8] of over 20 µM.
For O=C(NCc1ccccc1)c1cc2c(-c3ccccc3)n[nH]c2s1, the IC50 [1] was 15 µM, the IC50 [2] was 0.5 µM and the IC50 [5] was 17 µM. It also gave an IC50 (Casein kinase II) of 2 µM, an IC50 [7] of over 20 µM and an IC50 [8] of over 20 µM.
Cc1[nH]nc2sc(C(N)=O)c(NC(=O)c3ccc(Cl)cc3)c12 showed an IC50 [1] of over 100 µM, an IC50 [2] of over 100 µM and an IC50 [3] of over 100 µM. It also gave an IC50 (Casein kinase II) of over 100 µM and an IC50 [8] of over 100 µM.
With O=C(NC1CCCCC1)c1cc2c(-c3ccccc3)n[nH]c2s1 the IC50 [1] was over 20 µM, the IC50 [2] was 0.49 µM and the IC50 [3] was 12 µM. The IC50 [4] was 11 µM, the IC50 [5] was over 20 µM and the IC50 [6] was over 20 µM. The IC50 (Casein kinase II) was over 20 µM, the IC50 [7] was over 20 µM and the IC50 [8] was over 20 µM.
In the case of CC(=O)Nc1c(C(N)=O)sc2n[nH]c(C)c12, the IC50 [1] is reported as over 20 µM, the IC50 [2] is reported as 19 µM and the IC50 [3] is reported as over 20 µM. It also gave an IC50 (Casein kinase II) of 9 µM and an IC50 [8] of over 20 µM.
In the case of Cc1n[nH]c2sc(C(N)=O)c(NC(=O)COc3ccccc3)c12, the IC50 [1] is reported as over 100 µM, the IC50 [2] is reported as 11 µM and the IC50 [3] is reported as over 100 µM. The IC50 (Casein kinase II) was 6 µM and the IC50 [8] was over 100 µM.
With Cc1n[nH]c2sc(C(=O)NCc3ccccc3)cc12 the IC50 [1] was over 20 µM, the IC50 [2] was 12 µM and the IC50 [3] was 16 µM. For the same compound, the IC50 [5] was over 20 µM, the IC50 (Casein kinase II) was 19 µM and the IC50 [7] was over 20 µM. For the same compound, the IC50 [8] was over 20 µM.
COC(=O)c1cc2c(C)n[nH]c2s1 gave an IC50 [1] of over 100 µM, an IC50 [2] of 23 µM and an IC50 [3] of over 100 µM. It also gave an IC50 (Casein kinase II) of 38 µM and an IC50 [8] of over 100 µM.
In the case of Cc1[nH]nc2sc(C(N)=O)c(NC(=O)Nc3ccccc3)c12, the IC50 [1] is reported as 9 µM, the IC50 [2] is reported as 20 µM and the IC50 [3] is reported as over 20 µM. The IC50 (Casein kinase II) was 11 µM and the IC50 [8] was 13 µM.
COc1ccc(CNC(=O)c2cc3c(-c4ccccc4)n[nH]c3s2)cc1 gave an IC50 [1] of over 20 µM, an IC50 [2] of 0.51 µM and an IC50 [3] of over 20 µM. It also gave an IC50 [4] of over 20 µM, an IC50 [5] of 16 µM and an IC50 [6] of over 20 µM. For the same compound, the IC50 (Casein kinase II) was over 20 µM, the IC50 [7] was over 20 µM and the IC50 [8] was over 20 µM.
Work on Cc1[nH]nc2sc(C(N)=O)c(NC(=O)c3ccccc3Cl)c12 yielded an IC50 [1] of over 100 µM, an IC50 [2] of 8 µM and an IC50 [3] of 23 µM. It also gave an IC50 (Casein kinase II) of 9 µM and an IC50 [8] of over 100 µM.
Cc1n[nH]c2sc(C(N)=O)cc12 was tested, and the IC50 [1] was over 20 µM, the IC50 [2] was 17 µM and the IC50 [3] was over 20 µM. For the same compound, the IC50 [5] was over 20 µM, the IC50 (Casein kinase II) was 4 µM and the IC50 [7] was over 20 µM. The IC50 [8] was over 20 µM.
O=C(NCCc1ccccc1)c1cc2c(-c3ccccc3)n[nH]c2s1 was tested, and the IC50 [1] was over 20 µM, the IC50 [2] was 2 µM and the IC50 [3] was 17 µM. The IC50 [4] was over 20 µM, the IC50 [5] was over 20 µM and the IC50 [6] was over 20 µM. The IC50 (Casein kinase II) was over 20 µM, the IC50 [7] was over 20 µM and the IC50 [8] was over 20 µM.
Compound COC(=O)c1cc2c(CN3CCCCC3)n[nH]c2s1 has an IC50 [1] of over 100 µM, an IC50 [2] of over 100 µM and an IC50 [3] of over 100 µM. The IC50 (Casein kinase II) was over 100 µM and the IC50 [8] was over 100 µM.
For CCCCN(C)C(=O)c1cc2c(C)n[nH]c2s1, the IC50 [1] was over 20 µM, the IC50 [2] was over 20 µM and the IC50 [3] was over 20 µM. For the same compound, the IC50 [5] was over 20 µM, the IC50 (Casein kinase II) was 24 µM and the IC50 [7] was over 20 µM. For the same compound, the IC50 [8] was over 20 µM.
For COC(=O)c1cc2c(Nc3ccccc3)[nH]nc2s1, the IC50 [1] was 16 µM, the IC50 [2] was over 100 µM and the IC50 [3] was 21 µM. For the same compound, the IC50 (Casein kinase II) was 5 µM and the IC50 [8] was 37 µM.
COC(=O)C(=O)Nc1c(C(N)=O)sc2[nH]nc(C)c12 gave an IC50 [1] of over 100 µM, an IC50 [2] of 17 µM and an IC50 [3] of 8 µM. The IC50 (Casein kinase II) was 3 µM and the IC50 [8] was over 100 µM.
For CN1CCN(C(=O)c2cc3c(-c4ccccc4)n[nH]c3s2)CC1, the IC50 [1] was over 20 µM, the IC50 [2] was 4 µM and the IC50 [3] was over 20 µM. The IC50 [4] was over 20 µM, the IC50 [5] was over 20 µM and the IC50 [6] was over 20 µM. For the same compound, the IC50 (Casein kinase II) was over 20 µM, the IC50 [7] was over 20 µM and the IC50 [8] was over 20 µM.
Work on CCCCNC(=O)c1cc2c(C)n[nH]c2s1 yielded an IC50 [1] of over 20 µM, an IC50 [2] of 16 µM and an IC50 [3] of over 20 µM. For the same compound, the IC50 [5] was over 20 µM, the IC50 (Casein kinase II) was 21 µM and the IC50 [7] was over 20 µM. It also gave an IC50 [8] of over 20 µM.
